In patent EP0727211A1, “Use of src SH2 specific compounds to treat a bone resorption disease” (SMITHKLINE BEECHAM CORPORATION, priority 1995, dated 1996) one finds Ki and IC50 data, which are given here for 8 molecules.

For the experiment, the target named is T1, human SH-PTP2 SH2 domain (Homo sapiens, UniProt Q06124).
T1 construct: SH2 domain of human SH-PTP2 (amino acids 1-106); made in house; host or cells: E. coli (pGEX-2T)
T1 sequence (Q06124 1-106): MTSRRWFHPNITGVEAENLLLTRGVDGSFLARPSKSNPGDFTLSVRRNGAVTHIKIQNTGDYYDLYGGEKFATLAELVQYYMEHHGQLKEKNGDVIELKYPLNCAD
The experiment in a line: SH2 domain / pY peptide binding assay (ELISA-based, 96 well plate), SH-PTP2 SH2. To be noted: for Ki: Ki calculated from IC50 by the expanded equation, Table II; for IC50: cloned human SH2 domain fusion protein, 0.1 uM biotinylated pY peptide, Table I. Here is the method:
The inhibitory activity of compounds at the different human SH2 domains was determined in vitro using SH2 domains expressed as fusion proteins in E. coli. The SH2 domains used herein were the human forms of the src SH2 domain, Grb2 SH2 domain, lck SH2 domain, fyn SH2 domain, SH-PTP2 SH2 domain, p85 SH2 domain and hcp SH2 domain.
Fusion proteins having the structure GST-X-SH2 were prepared as described in the GST gene fusion kit system available from Pharmacia (New Jersey). GST is the tagging sequence glutathione s-transferase epitope (SEQ ID NO: 8) for fyn, Grb2 and SH-PTP2 and is the tagging sequence glutathione s-transferase epitope (SEQ ID NO: 9) for p85. SH2 refers to the SH2 domains of fyn, Grb2, p85 and SH-PTP2 which were expressed and purified using glutathione Sepharose 4B (Pharmacia) according to "Current Protocols in Molecular Biology", ed. FM Ausubel et al., pub. John Wiley and Sons, Inc., (1995), p 16.7.1. X is an appropriate linker, preferably of 6 to 21 base pairs, used to keep the SH2 construct in frame and complement cloning. As such, the sequence of X is not critical. One skilled in the art can readily construct the appropriate linker. The DNA sequence encoding each GST-X-SH2 fusion protein was designed such that the indicated restriction sites (BamH1 and EcoRI) flank the SH2 region. The vector used in the instant experiments was the E. coli expression vector pGEX-2T (Pharmacia) for fyn, Grb2 and SH-PTP2, and pGEX-3X (Pharmacia) for p85. Each of these vectors result in SH2 constructs having additional C-terminal amino acids as described below.
Human SH-PTP2 SH2 domain: The sequence encoding the SH2 domain of human SH-PTP2 (amino acids 1-106))(Bastien, L. et al., Biochem. Biophys. Res. Commun. 196, 124-133 (1993)) was cloned into the BamHI and EcoRI sites of the expression vector pGEX-2T. The SH2 domain including the additional C-terminal amino acids glutamine-phenylalanine-isoleucine-valine-threonine-aspartate (SEQ ID NO: 12) was cloned by PCR techniques known to those skilled in the art to yield the expressed fusion protein GST-X-SH-PTP2.
The binding assays for the SH2 domains and pY peptides were performed in an ELISA-based 96 well plate assay. In Millipore 96 well filter plates, hydrophilic Durapore® (pore size 0.65um Cat. No. MADVN6550), was added 2 ul (50% suspension) of Protein-G Sepharose (available from Pharmacia of N.J. Cat. No. 17-0618-01) and either 2 ul of 2 mg/ml of MAB178. (for gp120/SH2 domain fusion proteins src, lck and hcp) or 0.25 ul of anti-GST polyclonal antisera (available from Pharmacia of N.J.) (for GST/SH2 domain fusion proteins fyn, Grb2, p85 and SH-PTP2). 10 pmol of the subject SH2 domain fusion protein were added to their respective wells. The volume was brought to 100 ul with TBS-T (tris buffered saline plus 0.05% tween-20), incubated and shaken at room trmperature for 1 hr. then washed 1x with TBS-T (4°C). 90 ul of TBS-T were then added to each well. Specific pY biotinylated peptides were diluted to a concentration of 1.0 uM in TBS-T (these peptides can be obtained from Bachem Bioscience of Pennsylvania, Genosys Biotechnologies of Texas and California Peptide Research of California). 10 ul was aliquoted per well to yield a final concentration of 0.1 uM (approx, the Kd for each SH2 domain/peptide pair) and a final volume of 100 ul. The assay plates were incubated until equilibrium binding was attained (3 hr at 4°C with shaking). The assay plates were washed 2 X per well TBS-T (4°C), then 100 ul of SABC (Strepavidin biotinylated horseradish peroxidase complex, available from the Zymed corporation of California cat. no. 93-0043, 1 drop reagent A (streptavidin) and 1 drop of reagent B (AH-biotin conjugated-horseradish peroxidase) per 10 ml of TBS-T, incubated at 37°C for 30 minutes, then cooled to 4°C) was added per well, then incubated at 4°C for 30-60 minutes. The plates were then washed 4 X with TBS-T (4°C) (250 ul/well)/wash). […]

One may read the Ki as the equilibrium dissociation constant of an inhibitor or competing ligand from its target. By IC50 is commonly meant the concentration that inhibits the measured activity by half. A high value points to weaker potency in that assay.

For the molecule “4-acetamido-benzamido-trans-4-methyl-cyclohexyl-N-1-(amino-R-2-(methoxy methyl)-pyrrolidine) carboxamide [Compound 8]”, the Ki was greater than 1 mM and the 50% inhibitory concentration (IC50) was greater than 300 µM.
Turning to `Cc1nnc(SCC2=C(C(=O)O)N3C(=O)[C@@H](NC(=O)C(N)c4ccc(C(=O)O)cc4)[C@H]3SC2)s1` (stereo partly drawn) [Compound 1, 7-[D,L-α-Amino-α-(4-carboxyphenyl)acetamido]-3-[2-(5-methyl-1,3,4-thiadiazolyl)thiomethyl]Δ^3-cephem-4-carboxylic Acid], the inhibition constant Ki is greater than 1 mM and the IC50 was greater than 300 µM.
As to `N[C@@H](Cc1cc(Br)c(Oc2ccc(O)c(Cc3ccc(O)nn3)c2)c(Br)c1)C(=O)O` [Compound 2, L-3,5-Dibromo-3'-(6-oxo-3(1H)-pyridazinylmethyl)-thyronine], the Ki is greater than 1 mM and the IC50 is greater than 300 µM.
The like results for `Cc1nc2sc3c(c2c2[nH][nH]c(=O)c12)CCC1(C3)OCCO1` [Compound 3, 8,8-Ethylenedioxy-2,3,7,8,9,10-hexahydro-4-methyl-1H-benzo[b]thieno[2,3-b]pyrazolo[3,4-d]pyridin-3-one] were, in that order, greater than 1 mM and greater than 300 µM.
Regarding `Cc1nc2sc3c(c2c2c1c(=O)[nH]n2C)CCC1(C3)OCCO1` [Compound 5, 1,4-Dimethyl-8,8-ethylenedioxy-2,3,7,8,9,10-hexahydro-1H-benzo[b]thieno[2,3-b]pyrazolo[3,4-d]pyridin-3-one], the Ki was greater than 1 mM and the IC50 was greater than 300 µM.
Regarding `CCCCCCNC(=O)[C@H]1CC[C@H](CNC(=O)c2ccc([N+](=O)[O-])cc2)CC1` [Compound 7, 4-nitro-benzamido-trans-4-methyl-cyclohexyl-N-hexyl carboxamide], the Ki was greater than 1 mM and the IC50 was greater than 300 µM.
In the same order, the values of `CCCNC(=O)[C@H]1CC[C@H](CNC(=O)/C=C/c2ccc(C=O)cc2)CC1` [Compound 9, 4-formyl-E-cinnamido-trans-4-methyl-cyclohexyl-N-(propyl) carboxamide] are greater than 1 mM and greater than 300 µM.
`Cc1nc2sc3c(c2c2[nH][nH]c(=O)c12)CCCC3` [Compound 10, 2,3,7,8,9,10-Hexahydro-4-methyl-1H-benzo[b]thieno[2,3-b]pyrazolo[3,4-d]pyridin-3-one]: the inhibition constant Ki is greater than 1 mM and the IC50 is greater than 300 µM.
